Measured values taken from patent US7491794B2, “Macrocyclic compounds as inhibitors of viral replication” (Intermune, Inc., priority 2003, dated 2009).
Like-named read-outs stand apart in the source and are kept apart here.

What was measured:
[1] = test system: HCV sub-genomic replicon, GS4.3; assay: Quantitation by ELISA of NPTII in the HCV sub-genomic replicon, GS4.3, Section B; type: cell-based; conditions: Hepatitis C virus, read-out: Replicon EC50
Summary of the method: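 NPTII marker protein in lysates was quantified by ELISA read at 450 nm after 72 h inhibitor exposure (3-fold series, final DMSO 1%, G418-free medium) of HuH-7 cells stably harbouring the subgenomic HCV replicon. Values relative to DMSO-treated controls; 4-parameter curves gave EC50.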

NS3-NS4A protease = target: T1, NS3-NS4A protease (Hepatitis C virus genotype 1a, UniProt P27958); assay: NS3-NS4A protease assay (NS3 inhibition assay, RETS1 substrate), Section B; type: biochemical; conditions: read-out: NS3-NS4A IC50
T1 construct: Recombinant E. coli or Baculovirus full-length NS3 was diluted to 3.33 μM with assay buffer; made in house; host or cells: E. coli or baculovirus (BV) system
Summary of the method: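 Kinetic fluorescence read (335 nm excitation, 495 nm emission, 30 min) of RETS1 cleavage by NS3/NS4A-2 complex, 2 nM E. coli or 3 nM baculovirus NS3, after 10 min room-temperature compound pre-incubation. Four-parameter-fit IC50s converted to Ki by Cheng–Prusoff, Ki=IC50/(1+[S]/Km).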

T1 sequence (P27958 1027-1657): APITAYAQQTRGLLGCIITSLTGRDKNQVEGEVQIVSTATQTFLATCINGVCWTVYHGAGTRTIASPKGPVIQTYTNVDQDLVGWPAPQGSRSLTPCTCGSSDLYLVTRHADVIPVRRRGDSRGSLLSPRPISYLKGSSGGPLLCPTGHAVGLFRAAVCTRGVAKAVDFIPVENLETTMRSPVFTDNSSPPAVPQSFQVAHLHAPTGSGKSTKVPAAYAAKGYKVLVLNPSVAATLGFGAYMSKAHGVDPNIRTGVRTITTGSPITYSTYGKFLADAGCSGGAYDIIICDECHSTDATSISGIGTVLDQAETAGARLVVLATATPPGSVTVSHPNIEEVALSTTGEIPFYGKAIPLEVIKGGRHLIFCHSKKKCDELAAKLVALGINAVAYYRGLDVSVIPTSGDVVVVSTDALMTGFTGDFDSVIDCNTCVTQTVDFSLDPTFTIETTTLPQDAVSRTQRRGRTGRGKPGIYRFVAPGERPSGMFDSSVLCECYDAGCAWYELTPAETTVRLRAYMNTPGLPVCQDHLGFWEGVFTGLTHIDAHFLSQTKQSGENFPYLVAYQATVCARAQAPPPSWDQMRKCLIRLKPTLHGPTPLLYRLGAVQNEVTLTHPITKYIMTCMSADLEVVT

Row | Structure (SMILES) | EC50 ([1]; GS4.3 cells, 72 h incubation) [nM] | IC50 (NS3-NS4A protease) [nM] | EC50 ([1]; 72 h) [nM]
1 | CC(C)(C)OC(=O)N[C@H]1CCCCC/C=C\[C@@H]2C[C@@]2(C(=O)NS(=O)(=O)C2CC2)NC(=O)[C@@H]2C[C@@H](OC(=O)N3Cc4ccc(OCCOC(=O)N5CCOCC5)cc4C3)CN2C1=O [AR00345032, (1S,4R,6S,14S,18R)-5-[2-(Morpholine-4-carbonyloxy)-ethoxy]-1,3-dihydro-isoindole-2-carboxylic acid 14-tert-butoxycarbonylamino-4-cyclopropanesulfonylaminocarbonyl-2,15-dioxo-3,16-diaza-tricyclo[14.3.0.0^4,6]nonadec-7-en-18-yl ester] | < 100 | < 100 | 
2 | CC(C)(C)OC(=O)N[C@H]1CCCCC/C=C\[C@@H]2C[C@@]2(C(=O)NS(=O)(=O)C2CC2)NC(=O)[C@@H]2C[C@@H](NC(=S)N3CCc4ccccc4C3)CN2C1=O [AR00304012, (1S,4R,6S,14S,18R)-{4-Cyclopropanesulfonylaminocarbonyl-18-[(3,4-dihydro-1H-isoquinoline-2-carbothioyl)-amino]-2,15-dioxo-3,16-diaza-tricyclo[14.3.0.0^4,6]nonadec-7-en-14-yl}-carbamic acid tert-butyl ester] | < 1000 | < 100 | 
3 | O=C(N[C@H]1CCCCC/C=C\[C@@H]2C[C@@]2(C(=O)NS(=O)(=O)C2CC2)NC(=O)[C@@H]2C[C@@H](OC(=O)N3Cc4ccc(Cl)cc4C3)CN2C1=O)O[C@H]1CCOC1 [AR00334220, (1S,4R,6S,14S,18R)-5-Chloro-1,3-dihydro-isoindole-2-carboxylic acid 4-cyclopropanesulfonylaminocarbonyl-2,15-dioxo-14-(tetrahydro-furan-3-yloxycarbonylamino)-3,16-diaza-tricyclo[14.3.0.0^4,6]nonadec-7-en-18-yl ester] | < 1000 | < 100 | 
4 | CC(C)(C)OC(=O)N[C@H]1CCCCC/C=C\[C@@H]2C[C@@]2(C(=O)NS(=O)(=O)C2CC2)NC(=O)[C@@H]2C[C@@H](OC(=O)N3CCc4ccccc4C3CN3CCCCC3)CN2C1=O (stereo partly drawn) [AR00311815, (1S,4R,6S,14S,18R)-1-Piperidin-1-ylmethyl-3,4-dihydro-1H-isoquinoline-2-carboxylic acid 14-tert-butoxycarbonylamino-4-cyclopropanesulfonylaminocarbonyl-2,15-dioxo-3,16-diaza-tricyclo[14.3.0.0^4,6]nonadec-7-en-18-yl ester] | < 1000 | < 100 | 
5 | O=C(N[C@H]1CCCCC/C=C\[C@@H]2C[C@@]2(C(=O)O)NC(=O)[C@@H]2C[C@@H](OC(=O)N3Cc4ccccc4C3)CN2C1=O)OCCF [AR00320076, (1S,4R,6S,14S,18R)-18-(1,3-Dihydro-isoindole-2-carbonyloxy)-2,15-dioxo-14-(2-fluoro-ethoxycarbonylamino)-3,16-diaza-tricyclo[14.3.0.0^4,6]nonadec-7-ene-4-carboxylic acid] | < 10000 | < 1000 | 
6 | CC(C)(C)OC(=O)N[C@H]1CCCCC/C=C\[C@@H]2C[C@@]2(C(=O)O)NC(=O)[C@@H]2C[C@@H](OC(=O)N3CCc4ccccc43)CN2C1=O [AR00291875, (1S,4R,6S,14S,18R)-14-tert-Butoxycarbonylamino-18-(2,3-dihydro-indole-1-carbonyloxy)-2,15-dioxo-3,16-diaza-tricyclo[14.3.0.0^4,6]nonadec-7-ene-4-carboxylic acid] | < 10000 | < 1000 | 
7 | CC(C)(C)OC(=O)N[C@H]1CCCCCCCC2C[C@@]2(C(=O)NS(=O)(=O)C2CC2)NC(=O)[C@@H]2C[C@@H](OC(=O)N3Cc4ccccc4C3)CN2C1=O (stereo in doubt) [AR00333833, (1S,4R,6S,14S,18R)-1,3-Dihydro-isoindole-2-carboxylic acid 14-tert-butoxycarbonylamino-4-cyclopropanesulfonylaminocarbonyl-2,15-dioxo-3,16-diaza-tricyclo[14.3.0.0^4,6]nonadec-18-yl ester] | < 100 | < 100 | 
8 | CC(C)(C)OC(=O)N[C@H]1CCCCC/C=C\[C@@H]2C[C@@]2(C(=O)O)NC(=O)[C@@H]2C[C@@H](OC(=O)N3CCc4ccccc4C3)CN2C1=O [AR00220042, (1S,4R,6S,14S,18R)-14-tert-Butoxycarbonylamino-18-(3,4-dihydro-1H-isoquinoline-2-carbonyloxy)-2,15-dioxo-3,16-diaza-tricyclo[14.3.0.0^4,6]nonadec-7-ene-4-carboxylic acid] | < 10000 | < 1000 | 
9 | CC(C)(C)OC(=O)N[C@H]1CCCCC/C=C\[C@@H]2C[C@@]2(C(=O)NS(=O)(=O)C2CC2)NC(=O)[C@@H]2C[C@@H](OC(=O)N3CCc4c(F)cccc4C3)CN2C1=O [AR00298996, (1S,4R,6S,14S,18R)-5-Fluoro-3,4-dihydro-1H-isoquinoline-2-carboxylic acid 14-tert-butoxycarbonylamino-4-cyclopropanesulfonylaminocarbonyl-2,15-dioxo-3,16-diaza-tricyclo[14.3.0.0^4,6]nonadec-7-en-18-yl ester] | < 100 | < 100 | 
10 | COCC1c2ccc(OC)cc2CCN1C(=O)O[C@@H]1C[C@H]2C(=O)N[C@]3(C(=O)O)C[C@H]3/C=C\CCCCC[C@H](NC(=O)OC(C)(C)C)C(=O)N2C1 (stereo partly drawn) [AR00333842, (1S,4R,6S,14S,18R)-14-tert-Butoxycarbonylamino-18-(6-methoxy-1-methoxymethyl-3,4-dihydro-1H-isoquinoline-2-carbonyloxy)-2,15-dioxo-3,16-diaza-tricyclo[14.3.0.0^4,6]nonadec-7-ene-4-carboxylic acid] | < 10000 | < 1000 | 
11 | O=C(Cc1ccccc1)N[C@H]1CCCCC/C=C\[C@@H]2C[C@@]2(C(=O)NS(=O)(=O)C2CC2)NC(=O)[C@@H]2C[C@@H](OC(=O)N3Cc4cccc(F)c4C3)CN2C1=O [AR00340188, (1S,4R,6S,14S,18R)-4-Fluoro-1,3-dihydro-isoindole-2-carboxylic acid 4-cyclopropanesulfonylaminocarbonyl-2,15-dioxo-14-phenylacetylamino-3,16-diaza-tricyclo[14.3.0.0^4,6]nonadec-7-en-18-yl ester] | < 1000 | < 100 | 
12 | COc1ccc(S(=O)(=O)NC(=O)[C@@]23C[C@H]2/C=C\CCCCC[C@H](NC(=O)OC(C)(C)C)C(=O)N2C[C@H](OC(=O)N4CCc5ccccc5C4)C[C@H]2C(=O)N3)cc1 [AR00320548, (1S,4R,6S,14S,18R)-3,4-Dihydro-1H-isoquinoline-2-carboxylic acid 14-tert-butoxycarbonylamino-4-(4-methoxy-benzenesulfonylaminocarbonyl)-2,15-dioxo-3,16-diaza-tricyclo[14.3.0.0^4,6]nonadec-7-en-18-yl ester] |  | < 100 | < 100
13 | CC(C)(C)OC(=O)N[C@H]1CCCCC/C=C\[C@@H]2C[C@@]2(C(=O)O)NC(=O)[C@@H]2C[C@@H](NC(=S)N3CCc4ccccc4C3)CN2C1=O [AR00304010, (1S,4R,6S,14S,18R)-14-tert-Butoxycarbonylamino-18-[(3,4-dihydro-1H-isoquinoline-2-carbothioyl)-amino]-2,15-dioxo-3,16-diaza-tricyclo[14.3.0.0^4,6]nonadec-7-ene-4-carboxylic acid] | < 10000 | < 1000 | 
14 | COCC1c2cccc(F)c2CCN1C(=O)O[C@@H]1C[C@H]2C(=O)N[C@]3(C(=O)O)C[C@H]3/C=C\CCCCC[C@H](NC(=O)OC(C)(C)C)C(=O)N2C1 (stereo partly drawn) [AR00365349, (1S,4R,6S,14S,18R)-14-tert-Butoxycarbonylamino-18-(5-fluoro-1-methoxymethyl-3,4-dihydro-1H-isoquinoline-2-carbonyloxy)-2,15-dioxo-3,16-diaza-tricyclo[14.3.0.0^4,6]nonadec-7-ene-4-carboxylic acid] | < 1000 | < 1000 | 
15 | CC(C)(C)OC(=O)N[C@H]1CCCCC/C=C\[C@@H]2C[C@@]2(C(=O)NS(=O)(=O)c2cccs2)NC(=O)[C@@H]2C[C@@H](OC(=O)N3Cc4ccccc4C3)CN2C1=O [AR00365427, (1S,4R,6S,14S,18R)-1,3-Dihydro-isoindole-2-carboxylic acid 14-tert-butoxycarbonylamino-2,15-dioxo-4-(thiophene-2-sulfonylaminocarbonyl)-3,16-diaza-tricyclo[14.3.0.0^4,6]nonadec-7-en-18-yl ester] | < 100 | < 100 | 
16 | O=C(NC1CCCC1)N[C@H]1CCCCC/C=C\[C@@H]2C[C@@]2(C(=O)NS(=O)(=O)C2CC2)NC(=O)[C@@H]2C[C@@H](OC(=O)N3CCc4c(F)cccc4C3)CN2C1=O [AR00304080, (1S,4R,6S,14S,18R)-5-Fluoro-3,4-dihydro-1H-isoquinoline-2-carboxylic acid 14-(3-cyclopentyl-ureido)-4-cyclopropanesulfonylaminocarbonyl-2,15-dioxo-3,16-diaza-tricyclo[14.3.0.0^4,6]nonadec-7-en-18-yl ester] | < 100 | < 100 | 
17 | CCCCS(=O)(=O)NC(=O)[C@@]12C[C@H]1/C=C\CCCCC[C@H](NC(=O)OC(C)(C)C)C(=O)N1C[C@H](OC(=O)N3CCc4ccccc4C3)C[C@H]1C(=O)N2 [AR00261409, (1S,4R,6S,14S,18R)-3,4-Dihydro-1H-isoquinoline-2-carboxylic acid 4-(butane-1-sulfonylaminocarbonyl)-14-tert-butoxycarbonylamino-2,15-dioxo-3,16-diaza-tricyclo[14.3.0.0^4,6]nonadec-7-en-18-yl ester] |  | < 100 | < 10000
